Reference: patent US7470658B2, “Methods for inhibiting tumor metastasis, and peptides useful therefor” (Burnham Institute for Medical Research, priority 1999, dated 2008)
One block for each compound: values may come before it.

Columns and labels:
E-selectin:IgG = settings: comparison value for the heptapeptides; read-out: IC50 by ELISA binding assay using biotinylated sLe^a-PAA and E-selectin:IgG; cited from earlier work
E-selectin = experiment: Inhibition of binding between sLe^x-PAA-biotin and E-selectin:IgG by phage or peptides (ELISA); settings: synthetic peptides (FIG. 1E); read-out: half inhibition value (IC50) of binding between sLe^x and E-selectin
Chain of E-selectin (P16581 22-175 limits assumed): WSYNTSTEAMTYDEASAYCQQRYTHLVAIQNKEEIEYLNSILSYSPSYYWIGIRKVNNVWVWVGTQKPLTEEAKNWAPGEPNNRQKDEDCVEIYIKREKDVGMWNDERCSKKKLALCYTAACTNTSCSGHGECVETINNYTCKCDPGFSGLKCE
Description: The inhibition of binding between sLe^x and E-selectin:IgG by phage or peptides was assayed by adding five hundred ng of polymeric sLe^x (sLe^x-PAA-biotin, GlycoTech, Rocksville, Md.) to wells in the presence or absence of phage or peptide. After incubating at room temperature for 1 hour, wells were washed with TBS containing CaCl2, and sLe^x-PAA-biotin bound to each selectin was determined using the peroxidase conjugated avidin and peroxidase substrate ABTS (Pierce, Rockford, Ill.). The OD405 was read in an ELISA reader. The synthetic peptides used were linear IELLQAR (SEQ ID NO:7), cyclic CIELLQARC (SEQ ID NO:13) (cysteins linked by disulfide bonds are underlined), and IELLQAR (SEQ ID NO:7) multivalent (Fmoc eight branch), which was synthesized by AnaSpec, Inc. (San Jose, Calif.).

mouse B16 melanoma cells = experiment: In vivo lung metastasis of B16 melanoma cells transfected with fucosyltransferase-III; settings: peptide 500 mg/100 ml/mouse i.v. 20 minutes before 2×10^5 cells; foci counted after 3 weeks (FIG. 2B)
Description: (§1) The effect of IELLQAR (SEQ ID NO:7) phage and peptides on E-selectin mediated tumor metastasis was examined using mouse B16 melanoma cells or human melanoma MeWo cells transfected with fucosyltransferase-III, an enzyme which synthesizes sLe^x, as described in Kukowska-Latallo et al., Genes & Develop., 4:1288-1303 (1990). […] To test whether the heptapeptide sequence IELLQAR (SEQ ID NO:7) could inhibit metastasis in vivo, mice were injected with IELLQAR (SEQ ID NO:7) phage and with B16 cells through a tail vein and assayed for the presence of metastatic foci.
(§2) Phage (1×10^8 transducing units/100 ml/mouse) or peptide (500 mg/100 ml/mouse), each of which was equivalent to an amount 100 times the concentration required to inhibit binding between HL-60 to E-selectin determined by the in vitro assay described above in Example II (FIG. 1F), were injected intravenously into female mice (C57 black) that were 5-6 weeks old. The control phage lacks a consensus heptapeptide. The control peptide used in these experiments is MAPS alanine. After 20 minutes, metastatic tumor cells (2×10^5 cells) were administered through a tail vein. After 3 weeks, the numbers of metastatic foci appearing in the lung were counted.

[1] = tested on: human melanoma MeWo cells; experiment: In vivo lung metastasis of human melanoma MeWo cells transfected with fucosyltransferase-III; settings: peptide 500 mg/100 ml/mouse i.v. 20 minutes before cells; after 3 weeks (FIG. 2C)
Description: as §1, §2

[2] = tested on: human lung carcinoma HAL-8 cells; experiment: In vivo lung metastasis of human lung carcinoma HAL-8 cells; set-up: species or system mouse; settings: peptide pre-treatment i.v.
Description: as §2
The effect of IELLQAR (SEQ ID NO:7) peptide was assayed in the same manner described above.

[3] = tested on: vascular endothelial cells of the lung; experiment: Mouse lung histochemical analysis after intravenous injection of biotinylated peptide; assay type: in vivo; settings: i.v. injection, one hour, peroxidase conjugated avidin
From the text: Control peptide corresponding to MAPS alanine and IELLQAR (SEQ ID NO:7) peptide were biotinylated with biotin succinamide (Sigma, St. Louis, Mo.) and injected intravenously into mice. One hour after injection, mice were sacrificed, and tissues were examined histochemically using peroxidase conjugated avidin (Cappel, West Chester, Pa.) by the peroxidase method (Vectastatin ABC kit, Vector, Burlingame, Calif.).

[4] = tested on: B16 melanoma cells in the lung; experiment: Immunohistochemistry of B16 melanoma cells in the lung (anti-melanoma HMB45); assay type: in vivo, mouse; settings: pre-treated mice, one hour after administration of B16 cells
Description: Next, the immunohistochemistry in the mouse lung of melanoma cells injected intravenously was assayed. Mice were injected intravenously with either control phage, IELLQAR (SEQ ID NO:7) phage, control peptide, or IELLQAR (SEQ ID NO:7) peptide, followed by injection with B16 melanoma cells. One hour after administering B16 melanoma cells, the lungs were fixed in 4% paraformaldehyde and paraffin sections were prepared. The melanoma cells in the lung were visualized by immunostaining using anti-melanoma HMB45 mouse monoclonal IgG1 antibody (DAKO, Carpinteria, Calif.) by the peroxidase method (Vectastatin ABC kit, Vector, Burlingame, Calif.).

Compound: CC(=O)N[C@H]1[C@H](O[C@H]2[C@@H](O)[C@@H](CO)OC(O)[C@@H]2O)O[C@H](CO)[C@@H](O[C@@H]2O[C@H](CO)[C@H](O)[C@H](O[C@]3(C(=O)O)C[C@H](O)[C@@H](NC(C)=O)[C@H]([C@H](O)[C@H](O)CO)O3)[C@H]2O)[C@@H]1O[C@@H]1O[C@@H](C)[C@@H](O)[C@@H](O)[C@@H]1O (some centres unmarked) [sLe^x oligosaccharide, NeuNAcα2→3Galβ1→4(Fucα1→3)GlcNAcβ1→3Gal]
- IC50 (E-selectin:IgG): 550 µM

- IC50 (E-selectin): 10 µM
Compound: IELLQAR (SEQ ID NO:7) multivalent (Fmoc eight branch) [multivalent IELLQAR peptide, IELLQAR multivalent peptide, Fmoc eight branch MAPS, synthesized by AnaSpec]
- metastasis of B16 melanoma to the lung, peptide pre-treatment (mouse B16 melanoma cells): effective in preventing metastasis
- metastases of human melanoma MeWo cells to the lung [1]: inhibited efficiently
- metastases of human lung carcinoma HAL-8 cells to the lung [2]: inhibited efficiently

Compound: IELLQAR [IELLQAR peptide, synthetic IELLQAR peptide injected into mice]
- staining of biotinylated peptide on lung vascular endothelium [3]: detected on the vascular surface epithelium of the lung
- state of B16 melanoma cells in lung tissue sections [4]: non-adherent and appeared apoptotic

- IC50 (E-selectin): 200 µM
Compound: IELLQAR [linear heptapeptide]
